Data reported in US5905068A, “Retroviral protease inhibiting compounds” (Abbott Laboratories, priority 1996, dated 1999).

Key:
HIVIIIB = experiment: Antiviral Activity: anti-HIV activity in MT4 cells infected with HIVIIIB (MTT); type: cell-based; settings: Human immunodeficiency virus 1, 120 h, MOI 0.003, 5 days, n=four duplicate determinations
Experimental: (§1) The anti-HIV activity of the compound of the invention was determined in MF4 cells according to the following procedure: MT4 cells were infected with cell-free supernatant of HIVIIIB (previously frozen with known 50% tissue culture infectious dose (TCID50) at 0.003 multiplicity of infection (MOI)) for one hour. After one hour infection, cells were washed twice to remove residual viruses, resuspended in culture media and seeded into 96-well tissue culture plates at 1×10^4 cells per well with various half-log dilutions of compounds. Uninfected cells were included a toxicity and cell controls. RPMI 1640 media (GIBCO) with 10% fetal bovine serum was used as culture media. Various concentrations (50%, 25% and 12.5%) of human serum (SIGMA) were added to culture media resulting in final concentrations of 60%, 35% and 22.5% total serum. All assay plates were incubated in a 37° C. incubator for 5 days. The compound 3-[4,5-dimethylthiozol-2-yl]-2,5-diphenyltetrazolium bromide (MTT, SIGMA, 5 mg .mL stock in PBS) was then added to all wells at 25 μL per well and incubated for 4 hours. SDS (20%) with 0.02N HCl in water was added at 50 μL per well to lyse cells. Plates were incubated overnight for complete cell lysis and then read on a microtiter plate reader at 570/650 nm wavelengths to determine cell optical density (O.D.). Raw data was analysed for percent inhibition by the following formula: [formula]
The 50% effective concentration (EC50) was calculated by the median effect equation (Chou, 1975, Proc. Int. Cong. Pharmacol. 6th p. 619) to determine the efficacy of compound. The 50% cytotoxicity concentration (CTC50) was calculated using uninfected MT4 cells
Under these conditions, the data of Table 2 was obtained (n=four duplicate determinations).

[1] = Cytotoxicity in uninfected MT4 cells (MTT); type: cell-based; settings: human, 5 days, n=four duplicate determinations, read-out: CTC50 (50% cytotoxicity concentration)
Experimental: as §1, with “RPMI 1640 media (GIBCO) with 10% fetal bovine serum was used as culture media. Various concentrations (50%, 25% and 12.5%) of human serum (SIGMA) were added to culture media resulting in final concentrations of 60%, 35% and 22.5% total serum.” left out, “The compound 3-[4,5-dimethylthiozol-2-yl]-2,5-diphenyltetrazolium bromide (MTT, SIGMA, 5 mg .mL stock in PBS) was then added to all wells at 25 μL per well and incubated for 4 hours.” left out
The 50% cytotoxicity concentration (CTC50) was calculated using uninfected MT4 cells

HIV-1 protease = HIV-1 protease (Human immunodeficiency virus type 1 group M subtype B, UniProt P04585); experiment: Fluorogenic Assay for Screening Inhibitors of HIV Protease; settings: pH 4.5
Experimental: The inhibitory potency of the compounds of the invention were determined by the following method: The compound of the invention was dissolved in DMSO and a small aliquot further diluted with DMSO to 100 times the final concentration desired for testing. The reaction was carried out in a 6×50 mm tube in a total volume of 300 microliters. […] After addition of inhibitor, the reaction mixture was placed in the fluorometer cell holder and incubated at 30° C. for several minutes. The reaction was initiated by the addition of a small aliquot of cold HIV protease. The fluorescence intensity (excitation 340 nm, emission 490 nm) was recorded as a function of time. The reaction rate was determined for the first six to eight minutes. The observed rate was directly proportional to the moles of substrate cleaved per unit time. The percent inhibition was calculated according to the equation: 100×(1-(rate of inhibitor)/(rate in absence of inhibitor)). As a control, duplicate reactions were performed identically as above but without the addition of an inhibitor compound.

Row | Structure (SMILES) | EC50 (HIVIIIB) | CC50 at 120 h [1] | inhibition at 0.0005 µM (HIV-1 protease) | inhibition at 0.0024 µM (HIV-1 protease) | inhibition at 0.0013 µM (HIV-1 protease)
1 | Cc1cccc(C)c1OCC(=O)N[C@@H](Cc1ccccc1)[C@@H](O)C[C@H](Cc1ccccc1)NC(=O)OC1CCSC1 (mixture of isomers) [Example 30, (2S,3S,5S)-2-(2,6-Dimethylphenoxyacetyl)amino-5-(3(R,S)-tetrahydrothienyloxycarbonyl)amino-1,6-diphenyl-3-hydroxyhexane] | 1000 nM | 13500 nM | 52% | – | –
2 | Cc1cccc(C)c1OCC(=O)N[C@@H](Cc1ccccc1)[C@@H](O)C[C@H](Cc1ccccc1)NC(=O)OC1CCCSC1 (mixture of isomers) [Example 31, (2S,3S,5S)-2-(2,6-Dimethylphenoxyacetyl)amino-5-(3(R,S)-tetrahydrothiopyranyloxycarbonyl)amino-1,6-diphenyl-3-hydroxyhexane] | 1100 nM | 53300 nM | 52% | – | –
3 | Cc1cc(N)cc(C)c1OCC(=O)N[C@@H](Cc1ccccc1)C[C@H](O)[C@H](Cc1ccccc1)NC(=O)O[C@H]1CO[C@H]2OCC[C@H]21 [Example 1, (2S,3S,5S)-5-(2,6-Dimethyl-4-amino-phenoxyacetyl)amino-2-((3R,3aS,6aR)-bis-tetrahydrofuran-3-yl-oxycarbonyl)amino-1,6-diphenyl-3-hydroxyhexane] | 9 nM | 95000 nM | 78% | – | –
4 | Cc1cc(N)cc(C)c1OCC(=O)N[C@@H](Cc1ccccc1)C[C@H](O)[C@H](Cc1ccccc1)NC(=O)O[C@@H]1CO[C@@H]2OCC[C@@H]21 [Example 2, (2S,3S,5S)-5-(2,6-Dimethyl-4-amino-phenoxyacetyl)amino-2-((3S,3aR,6aS)-bis-tetrahydrofuran-3-yl-oxycarbonyl)amino-1,6-diphenyl-3-hydroxyhexane] | 170 nM | 90000 nM | 60% | – | –
5 | Cc1cc(N)cc(C)c1OCC(=O)N[C@@H](Cc1ccccc1)[C@@H](O)C[C@H](Cc1ccccc1)NC(=O)O[C@H]1CO[C@H]2OCC[C@H]21 [Example 3, (2S,3S,5S)-2-(2,6-Dimethyl-4-amino-phenoxyacetyl)amino-5-((3R,3aS,6aR)-bis-tetrahydrofuran-3-yl-oxycarbonyl)amino-1,6-diphenyl-3-hydroxyhexane] | 8 nM | 61000 nM | 91% | – | –
6 | Cc1cc(C)c(OCC(=O)N[C@@H](Cc2ccccc2)C[C@H](O)[C@H](Cc2ccccc2)NC(=O)O[C@H]2CO[C@H]3OCC[C@H]32)c(C)c1N [Example 4, (2S,3S,5S)-5-(2,4,6-Trimethyl-3-amino-phenoxyacetyl)amino-2-((3R,3aS,6aR)-bis-tetrahydrofuran-3-yl-oxycarbonyl)amino-1,6-diphenyl-3-hydroxyhexane] | 32 nM | 41000 nM | 74% | – | –
7 | Cc1cccc(C)c1OCC(=O)N[C@@H](Cc1ccccc1)C[C@H](O)[C@H](Cc1ccccc1)NC(=O)O[C@H]1CO[C@H]2OCC[C@H]21 [Example 5, (2S,3S,5S)-5-(2,6-Dimethyl-phenoxyacetyl)amino-2-((3R,3aS,6aR)-bis-tetrahydrofuran-3-yl-oxycarbonyl)amino-1,6-diphenyl-3-hydroxyhexane] | 41 nM | > 100000 nM | 87% | – | –
8 | Cc1cccc(C)c1OCC(=O)N[C@@H](Cc1ccccc1)[C@@H](O)C[C@H](Cc1ccccc1)NC(=O)O[C@H]1CO[C@H]2OCC[C@H]21 [Example 6, (2S,3S,5S)-2-(2,6-Dimethyl-phenoxyacetyl)amino-5-((3R,3aS,6aR)-bis-tetrahydrofuran-3-yl-oxycarbonyl)amino-1,6-diphenyl-3-hydroxyhexane] | 61 nM | > 100000 nM | 91% | – | –
9 | Cc1cccc(CO)c1OCC(=O)N[C@@H](Cc1ccccc1)C[C@H](O)[C@H](Cc1ccccc1)NC(=O)O[C@H]1CO[C@H]2OCC[C@H]21 [Example 7, (2S,3S,5S)-5-(2-Hydroxymethyl-6-methyl-phenoxyacetyl)amino-2-((3R,3aS,6aR)-bis-tetrahydrofuran-3-yl-oxycarbonyl)amino-1,6-diphenyl-3-hydroxyhexane] | 37 nM | 82000 nM | 88% | – | –
10 | Cc1ncnc(C)c1OCC(=O)N[C@@H](Cc1ccccc1)C[C@H](O)[C@H](Cc1ccccc1)NC(=O)O[C@H]1CO[C@H]2OCC[C@H]21 [Example 8, (2S,3S,5S)-5-(4,6-Dimethyl-pyrimidinyl-5-oxyacetyl)amino-2-((3R,3aS,6aR)-bis-tetrahydrofuran-3-yl-oxycarbonyl)amino-1,6-diphenyl-3-hydroxyhexane] | 815 nM | > 100000 nM | 56% | – | –
11 | Cc1cccc(C)c1NCC(=O)N[C@@H](Cc1ccccc1)[C@@H](O)C[C@H](Cc1ccccc1)NC(=O)O[C@H]1CO[C@H]2OCC[C@H]21 [Example 9, (2S,3S,5S)-5-(N-(2,6-Dimethyl-phenyl)aminoacetyl)amino-2-((3R,3aS,6aR)-bis-tetrahydrofuran-3-yl-oxycarbonyl)amino-1,6-diphenyl-3-hydroxyhexane] | 253 nM | 56000 nM | 69% | – | –
12 | Cc1cc(C)c(OCC(=O)N[C@@H](Cc2ccccc2)C[C@H](O)[C@H](Cc2ccccc2)NC(=O)O[C@H]2CO[C@H]3OCC[C@H]32)c(C)c1 [Example 11, (2S,3S,5S)-5-(2,4,6-Trimethyl-phenoxyacetyl)amino-2-((3R,3aS,6aR)-bis-tetrahydrofuran-3-yl-oxycarbonyl)amino-1,6-diphenyl-3-hydroxyhexane] | 205 nM | 48000 nM | 82% | – | –
13 | COc1cccc(C)c1OCC(=O)N[C@@H](Cc1ccccc1)C[C@H](O)[C@H](Cc1ccccc1)NC(=O)O[C@H]1CO[C@H]2OCC[C@H]21 [Example 12, (2S,3S,5S)-5-(2-Methoxy-6-methylphenoxyacetyl)amino-2-((3R,3aS,6aR)-bis-tetrahydrofuran-3-yl-oxycarbonyl)amino-1,6-diphenyl-3-hydroxyhexane] | 353 nM | > 32000 nM | 74% | – | –
14 | Cc1cccc(C)c1N(C)CC(=O)N[C@@H](Cc1ccccc1)C[C@H](O)[C@H](Cc1ccccc1)NC(=O)O[C@H]1CO[C@H]2OCC[C@H]21 [Example 13, (2S,3S,5S)-5-(N-(2,6-Dimethyl-phenyl)-N-methyl-aminoacetyl)amino-2-((3R,3aS,6aR)-bis-tetrahydrofuran-3-yl-oxycarbonyl)amino-1,6-diphenyl-3-hydroxyhexane] | 2910 nM | 18000 nM | – | 50% | –
15 | Cc1cc(F)cc(C)c1OCC(=O)N[C@@H](Cc1ccccc1)C[C@H](O)[C@H](Cc1ccccc1)NC(=O)O[C@H]1CO[C@H]2OCC[C@H]21 [Example 14, (2S,3S,5S)-5-(2,6-Dimethyl-4-fluoro-phenoxyacetyl)amino-2-((3R,3aS,6aR)-bis-tetrahydrofuran-3-yl-oxycarbonyl)amino-1,6-diphenyl-3-hydroxyhexane] | 268 nM | 64000 nM | 69% | – | –
16 | Cc1cc(N(C)C)cc(C)c1OCC(=O)N[C@@H](Cc1ccccc1)C[C@H](O)[C@H](Cc1ccccc1)NC(=O)O[C@H]1CO[C@H]2OCC[C@H]21 [Example 15, 5-(2,6-Dimethyl-4-N, N-dimethylamino-phenoxyacetyl)amino-2-((3R,3aS,6aR)-bis-tetrahydrofuran-3-yl-oxycarbonyl)amino-1,6-diphenyl-3-hydroxyhexane] | 160 nM | 46000 nM | 43% | – | –
17 | Cc1cccc(C)c1OCC(=O)N[C@@H](Cc1ccccc1)[C@@H](O)C[C@H](Cc1ccccc1)NC(=O)OC1CCSC1C(C)C (stereo partly drawn) [Example 27, (2S,3S,5S)-2-(2,6-Dimethylphenoxyacetyl)amino-5-(3(R,S)-2(R,S)-isopropyl-tetrahydrothienyloxycarbonyl)amino-1,6-diphenyl-3-hydroxyhexane] | – | – | – | – | 50%
18 | O=C(N[C@@H](Cc1ccccc1)C[C@H](O)[C@H](Cc1ccccc1)NC(=O)c1cccc(O)c1)O[C@H]1CO[C@H]2OCC[C@H]21 [Example 66, (2S,3S,5S)-2-(3-Hydroxy-benzoyl)amino-5-((3R,3aS,6aR)-bis-tetrahydrofuran-3-yl-oxycarbonyl)amino-1,6-diphenyl-3-hydroxyhexane] | 644 nM | – | 68% | – | –
